# From patent US11306078B2, “Piperidine CXCR7 receptor modulators” (IDORSIA PHARMACEUTICALS LTD., priority 2016, dated 2022)
# Biological target: human chemokine receptor CXCR7 (Homo sapiens (Human), UniProt P25106)
# Test: Tango CXCR7-bla U2OS beta-arrestin recruitment assay (beta-lactamase reporter, FRET), antagonism of CXCL12/SDF1-α;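 also: compounds preincubated 15 min before CXCL12 addition, then 22 h at 37 °C, FRET emission ratio read with CCF4-AM substrate after 2 h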
# Assay type: cell-based
# Settings: antagonistic effect on CXCR7; Tango CXCR7-bla U2OS cells, CXCL12/SDF1-α at its EC80
# Sequence of human chemokine receptor CXCR7 (P25106 whole entry): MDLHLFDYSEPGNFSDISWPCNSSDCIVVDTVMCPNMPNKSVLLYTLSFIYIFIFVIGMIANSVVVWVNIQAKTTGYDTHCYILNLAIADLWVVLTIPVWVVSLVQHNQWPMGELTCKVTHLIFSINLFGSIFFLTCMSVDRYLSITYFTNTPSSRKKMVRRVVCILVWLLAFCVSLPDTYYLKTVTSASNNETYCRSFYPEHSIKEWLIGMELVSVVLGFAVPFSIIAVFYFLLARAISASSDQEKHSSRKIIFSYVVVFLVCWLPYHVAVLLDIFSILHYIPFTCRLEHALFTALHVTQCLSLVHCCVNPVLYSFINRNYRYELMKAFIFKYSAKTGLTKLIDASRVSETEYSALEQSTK
row,IC50 [µM],SMILES
1,0.273,"O=C(N[C@@H]1CCN(CC2CC2)C[C@H]1C(=O)NC1(c2ncccn2)CC1)c1cc(-c2cccc(F)c2F)on1 (racemic) [Example 1.199, rac-(3R*,4R*)-1-Cyclopropylmethyl-4-{[5-(2,3-difluoro-phenyl)-isoxazole-3-carbonyl]-amino}-piperidine-3-carboxylic acid (1-pyrimidin-2-yl-cyclopropyl)-amide]"
2,0.209,"CC(C)N1CC[C@@H](NC(=O)c2cc(-c3ccc(F)cc3F)on2)[C@H](C(=O)N(C)C)C1 (racemic) [Example 2.001, rac-(3R*,4R*)-4-{[5-(2,4-Difluoro-phenyl)-isoxazole-3-carbonyl]-amino}-1-isopropyl-piperidine-3-carboxylic Acid Dimethylamide]"
3,0.965,"CN(C)C(=O)[C@@H]1CN(C2CCCCC2)CC[C@H]1NC(=O)c1cc(-c2c(F)cccc2F)on1 (racemic) [Example 3.001, rac-(3R*,4R*)-1-Cyclohexyl-4-{[5-(2,6-difluoro-phenyl)-isoxazole-3-carbonyl]-amino}-piperidine-3-carboxylic acid dimethylamide]"
4,0.435,"CN(C)C(=O)[C@@H]1CN(C2CCCCC2)CC[C@H]1NC(=O)c1cc(-c2ccc(F)cc2)on1 (racemic) [Example 3.002, rac-(3R*,4R*)-1-Cyclohexyl-4-{[5-(4-fluoro-phenyl)-isoxazole-3-carbonyl]-amino}-piperidine-3-carboxylic acid dimethylamide]"
5,0.105,"CN(C)C(=O)[C@@H]1CN(C2CCCCC2)CC[C@H]1NC(=O)c1nnc(-c2ccc(F)cc2F)o1 (racemic) [Example 3.003, rac-(3R*,4R*)-1-Cyclohexyl-4-{[5-(2,4-difluoro-phenyl)-[1,3,4]oxadiazole-2-carbonyl]-amino}-piperidine-3-carboxylic acid dimethylamide]"
6,0.338,"CN(C)C(=O)[C@@H]1CN(C2CCCCC2)CC[C@H]1NC(=O)c1cc(-c2ccc(F)cc2Cl)on1 (racemic) [Example 3.004, rac-(3R*,4R*)-4-{[5-(2-Chloro-4-fluoro-phenyl)-isoxazole-3-carbonyl]-amino}-1-cyclohexyl-piperidine-3-carboxylic acid dimethylamide]"
7,0.038,"CN(C)C(=O)[C@@H]1CN(C2CCCCC2)CC[C@H]1NC(=O)c1cc(-c2c(F)cc(F)cc2F)on1 (racemic) [Example 3.005, rac-(3R*,4R*)-1-Cyclohexyl-4-{[5-(2,4,6-trifluoro-phenyl)-isoxazole-3-carbonyl]-amino}-piperidine-3-carboxylic acid dimethylamide]"
8,0.108,"CN(C)C(=O)[C@@H]1CN(C2CCCCC2)CC[C@H]1NC(=O)c1cc(-c2ccc(Cl)cc2F)on1 (racemic) [Example 3.006, rac-(3R*,4R*)-4-{[5-(4-Chloro-2-fluoro-phenyl)-isoxazole-3-carbonyl]-amino}-1-cyclohexyl-piperidine-3-carboxylic acid dimethylamide]"
9,0.286,"O=C(N[C@@H]1CCN(C2CCCCC2)C[C@H]1C(=O)NC1(c2ccccn2)CC1)c1cc(-c2ccccc2F)on1 (racemic) [Example 3.009, rac-(3R*,4R*)-1-Cyclohexyl-4-{[5-(2-fluoro-phenyl)-isoxazole-3-carbonyl]amino}-piperidine-3-carboxylic acid (1-pyridin-2-yl-cyclopropyl)-amide]"
10,0.026,"O=C(N[C@@H]1CCN(C2CCCCC2)C[C@H]1C(=O)NC1(c2ccccn2)CC1)c1nnc(-c2ccc(F)cc2F)o1 (racemic) [Example 3.012, rac-(3R*,4R*)-1-Cyclohexyl-4-{[5-(2,4-difluoro-phenyl)-[1,3,4]oxadiazole-2-carbonyl]-amino}-piperidine-3-carboxylic acid (1-pyridin-2-yl-cyclopropyl)-amide]"

row,SMILES,IC50 [µM]
1,"CN(C)C(=O)[C@@H]1CN(C2CCCCC2)CC[C@H]1NC(=O)c1noc(-c2ccc(F)cc2F)n1 (racemic) [Example 3.007, rac-(3R*,4R*)-1-Cyclohexyl-4-{[5-(2-difluoro-phenyl)-[1,2,4]oxadiazole-3-carbonyl]-amino}-piperidine-3-carboxylic acid dimethylamide]",0.162
